The test addresses T1, 5-Lipoxygenase (Mus musculus, UniProt P48999).
T1 construct: Use the interleukin-3-dependent murine mast cell clone, MC-9; endogenous in cells; host or cells: MC-9 murine mast cell clone (interleukin-3-dependent)
T1 sequence (P48999 1-674): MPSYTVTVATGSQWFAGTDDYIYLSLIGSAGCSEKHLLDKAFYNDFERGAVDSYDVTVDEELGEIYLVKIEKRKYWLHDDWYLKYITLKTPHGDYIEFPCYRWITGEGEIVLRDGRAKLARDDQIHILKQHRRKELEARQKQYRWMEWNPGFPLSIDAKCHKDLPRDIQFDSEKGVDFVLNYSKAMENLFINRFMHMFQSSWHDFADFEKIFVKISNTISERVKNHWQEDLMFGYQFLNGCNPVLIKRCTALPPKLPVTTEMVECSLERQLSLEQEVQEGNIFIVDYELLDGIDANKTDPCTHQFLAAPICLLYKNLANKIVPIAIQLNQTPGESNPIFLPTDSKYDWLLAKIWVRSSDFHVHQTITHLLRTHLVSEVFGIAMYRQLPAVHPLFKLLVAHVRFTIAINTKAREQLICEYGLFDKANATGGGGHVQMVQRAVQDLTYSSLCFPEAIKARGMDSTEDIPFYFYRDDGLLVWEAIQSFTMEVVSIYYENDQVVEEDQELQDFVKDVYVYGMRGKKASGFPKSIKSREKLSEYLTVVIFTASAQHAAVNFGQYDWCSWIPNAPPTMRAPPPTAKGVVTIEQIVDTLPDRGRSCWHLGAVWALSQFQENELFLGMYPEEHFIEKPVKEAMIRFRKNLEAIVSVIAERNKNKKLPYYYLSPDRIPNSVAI
Put plainly: 5-Lipoxygenase Assay (inhibition of LTC4 and 5-HETE production in MC-9 mast cells). Type of test: cell-based. The conditions noted are these: MC-9 murine mast cells, [14C]-arachidonic acid, A23187. An excerpt:
Use the interleukin-3-dependent murine mast cell clone, MC-9, to test the effects of representative compounds of the invention on lipoxygenase activity. Grow the MC-9 cell line in suspension culture (0.4 to 1.2×10^6 cells/ml) in RPMI 1640 medium (Gibco) with 10% fetal bovine serum (Hyclone) and 2-5% concanavalin-A conditioned supernatant (Musch et. al., (1985) Prostagandins 29, 405-4307). Harvest the cells, wash them twice by centrifugation, and resuspend them in a Ca^++ -free HEPES buffer (25 mM HEPES, 125 mM NaCl, 2.5 mMKCl, 0.7 mM MgCl2 0.5 mM EDTA and 10 mM glucose at pH 7.4).
Preincubate MC-9 cells (0.39 ml at 7.5×10^6 cells/ml) without or with test compound dissolved in dimethylsulfoxide (DMSO) vehicle (to final volume 1 ml) for 4 minutes then incubate for 5 minutes with [^14 C]-arachidonic acid (Amersham, 59 Ci/mole) at a […] final concentration, and A23187 (Calbiochem) at a […] final concentration in […] of water:ethanol (9:1). Stop the reaction by addition of methanol (0.4 ml), and remove cellular debris by centrifugation. Run aliquots ([…]) of the incubations on a Waters two-pump HPLC system fitted with a Waters radial compression column (C18, 10 micron, 8×100 mm, micro-Bondapak) and C18 "Guard Pak". Initially elute the column at 3 ml/min with water:methanol:acetic acid (67:33:0.08) containing 1 mM EDTA adjusted to pH 6.0 with ammonium hydroxide (Pump A). At 4 minutes, establish a linear gradient to reach 100% methanol (Pump B) at 9 minutes. Between 13 and 14 minutes, exchange for the initial eluting solvent and by 19 minutes the column will be reequilibrated for the next sample. Analyze the effluent by a continuous flow radioactivity monitor (model ROMONA-D) interfaced with a Hewlett Packard Lab Automation System for quantitation of radioactive products.
These products are predominantly leukotriene C4 (LTC4), which elutes at 6 minutes, and 5-hydroxeicosatetraenoic acid (5-HETE), which elutes at 11 minutes (Musch et. al., supra). […] Doses in table 1 are 50 μM unless otherwise noted.

Consider nine molecules from patent US4897397A, “Aryl-alkynoic, alkenoic or alkanoic compounds and compositions useful as antiallergy and anti-inflammatory agents” (Schering Corporation, priority 1988, dated 1990).

For the molecule `O=C(O)CCC/C=C/c1cccc(OCc2cccnc2)c1`, the inhibition (as a rule, the percentage by which the read-out fell short of the control) at 50 µM was 7%.
In turn, `O=C(O)CCCC#Cc1cccc(OCc2ccccc2)c1` came in with an inhibition at 50 µM of 80%.
With `O=C(O)CCCCCc1cccc(OCc2ccccc2)c1` the figure was 80%.
Turning to `O=C(O)CCC/C=C/c1cccc(Oc2ccccc2)c1`, the inhibition at 50 µM is 74%.
In the case of `O=C(O)CCC/C=C\c1cccc(OCc2ccccc2)c1`, the inhibition at 50 µM came out at 89%.
To `O=C(O)CCC/C=C/c1cccc(SCc2ccccc2)c1` belongs 0%; to `O=C(O)CCC/C=C/c1cccc(OCC2CCCCO2)c1` (stereo not drawn), 23%.
To `O=C(O)CCC/C=C/c1cccc(OCc2ccccc2)c1` belongs 84%.
With `CCOC(=O)CCC/C=C/c1cccc(OCc2c[nH]cn2)c1` the figure was 89%.
